Reference: article PMC7576608, “Mechanisms of telomerase inhibition by oxidized and therapeutic dNTPs” (Nature Communications, 2020)
Where “and” joins values, the source holds several entries; their conditions need not be identical. Equal values may be shown once. Read-outs that look alike come from different tables or passages of the source.

Target: telomerase (Homo sapiens, UniProt O14746)
Test: Telomerase repeat processivity IC50: modified dNTP titrated into reactions with all four natural dNTPs
Format: biochemical
Design: made in house; anti-FLAG immunopurification, eluted with 3xFLAG peptide
Settings: for YIntercept (line fit of ln(100-%LB) vs # telomere repeats) / ln(100-%LB): n1-n3
Summary of the method: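 Immunopurified human telomerase reactions with cellular-relevant levels of all four natural dNTPs plus modified dNTP titrated 0–10,000 μM, 1 h at 37 °C; products resolved on denaturing gels and phosphorimaged. Repeat processivity R1/2 = −ln(2)/slope of ln(100−%LB) vs repeat number; IC50 is concentration halving bulk repeat processivity.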

[1] = cellular relevant natural dNTPs, modified dNTP titrated 0 to 10,000 μM, based on repeat processivity, mean ± SD, read-out: Telomerase processivity IC50
[2] = fit of R 1/2 vs log(concentration), 8-oxo-dGTP, replicates N1-N4
[3] = log of processivity IC50 (concentration in μM), Supplementary Fig 8b, read-out: Log IC50 (converted)
[4] = dose-response fit of processivity R 1/2, individual replicates
[5] = dose-response fit of processivity R 1/2 vs log(concentration), individual replicates

Sequence of telomerase (O14746 whole entry): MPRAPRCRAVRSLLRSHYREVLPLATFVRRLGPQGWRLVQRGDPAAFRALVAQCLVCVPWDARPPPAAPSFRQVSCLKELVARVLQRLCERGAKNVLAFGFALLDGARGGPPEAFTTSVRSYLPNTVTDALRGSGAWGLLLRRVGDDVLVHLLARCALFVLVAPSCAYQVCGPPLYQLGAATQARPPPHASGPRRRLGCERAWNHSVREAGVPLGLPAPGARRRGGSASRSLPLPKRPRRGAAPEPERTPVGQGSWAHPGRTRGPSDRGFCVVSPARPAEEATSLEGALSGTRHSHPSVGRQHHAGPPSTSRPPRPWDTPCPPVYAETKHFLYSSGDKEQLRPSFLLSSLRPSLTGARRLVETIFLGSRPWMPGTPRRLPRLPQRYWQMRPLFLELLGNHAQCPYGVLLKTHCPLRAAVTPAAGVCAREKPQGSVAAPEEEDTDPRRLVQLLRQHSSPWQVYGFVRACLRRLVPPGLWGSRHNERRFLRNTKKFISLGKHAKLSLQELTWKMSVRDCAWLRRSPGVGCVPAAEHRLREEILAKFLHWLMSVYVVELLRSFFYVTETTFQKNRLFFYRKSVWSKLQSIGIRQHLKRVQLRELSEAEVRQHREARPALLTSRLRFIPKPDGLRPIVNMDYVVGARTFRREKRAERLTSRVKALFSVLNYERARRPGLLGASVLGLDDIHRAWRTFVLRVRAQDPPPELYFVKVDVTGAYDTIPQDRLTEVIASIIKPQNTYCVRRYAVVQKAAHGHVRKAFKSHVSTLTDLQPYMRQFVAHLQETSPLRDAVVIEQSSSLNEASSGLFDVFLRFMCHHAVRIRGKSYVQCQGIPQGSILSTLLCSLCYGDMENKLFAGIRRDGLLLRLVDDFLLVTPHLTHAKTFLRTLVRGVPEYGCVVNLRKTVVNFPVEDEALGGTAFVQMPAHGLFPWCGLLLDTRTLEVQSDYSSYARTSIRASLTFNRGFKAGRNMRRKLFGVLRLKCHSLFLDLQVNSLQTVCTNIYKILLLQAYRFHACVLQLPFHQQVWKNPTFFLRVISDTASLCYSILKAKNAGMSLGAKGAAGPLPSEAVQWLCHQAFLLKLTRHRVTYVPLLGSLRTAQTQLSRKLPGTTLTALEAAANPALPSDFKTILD

`Nc1nc2c([nH]c(=O)n2C2CC(O)C(COP(=O)(O)OP(=O)(O)OP(=O)(O)O)O2)c(=O)[nH]1` (centres unmarked) [8-oxo-dGTP] was tested, and the “Processivity R 1/2” value (8-oxo-dGTP 156.25 μM, replicates n1-n4) was 3.18 and 2.53 and 3.23, the “YIntercept (line fit of ln(100-%LB) vs # telomere repeats)” value (8-oxo-dGTP 160μM) was 3.28 and 3.52 and 3.30 and the “ln(100-%LB)” value (8-oxo-dGTP 160μM, telomere repeat 1) was 3.67 and 3.81 and 3.65. For the same molecule, the “ln(100-%LB)” value (8-oxo-dGTP 160μM, telomere repeat 2) was 3.11 and 3.28 and 3.14, the “ln(100-%LB)” value (8-oxo-dGTP 160μM, telomere repeat 3) was 2.62 and 2.68 and 2.65 and the “ln(100-%LB)” value (8-oxo-dGTP 160μM, telomere repeat 4) was 2.38 and 2.37 and 2.44. The “ln(100-%LB)” value (8-oxo-dGTP 160μM, telomere repeat 5) was 2.10 and 2.03 and 2.19, the “ln(100-%LB)” value (8-oxo-dGTP 160μM, telomere repeat 6) was 1.76 and 1.70 and 1.93 and the “ln(100-%LB)” value (8-oxo-dGTP 160μM, telomere repeat 7) was 1.44 and 1.37 and 1.64. For the same molecule, the “ln(100-%LB)” value (8-oxo-dGTP 160μM, telomere repeat 8) was 1.22 and 1.14 and 1.43, the “ln(100-%LB)” value (8-oxo-dGTP 160μM, telomere repeat 9) was 0.99 and 0.88 and 1.23 and the “ln(100-%LB)” value (8-oxo-dGTP 160μM, telomere repeat 10) was 0.74 and 0.58 and 1.00. For the same molecule, the “YIntercept (line fit of ln(100-%LB) vs # telomere repeats)” value (8-oxo-dGTP 625μM) was 3.24 and 3.54 and 3.75, the “Processivity R 1/2” value (8-oxo-dGTP 625 μM, replicates n1-n4) was 2.67 and 2.52 and 3.04 and the “ln(100-%LB)” value (8-oxo-dGTP 625μM, telomere repeat 1) was 3.67 and 3.79 and 3.89. The “ln(100-%LB)” value (8-oxo-dGTP 625μM, telomere repeat 2) was 3.11 and 3.31 and 3.40, the “ln(100-%LB)” value (8-oxo-dGTP 625μM, telomere repeat 3) was 2.62 and 2.84 and 2.91 and the “ln(100-%LB)” value (8-oxo-dGTP 625μM, telomere repeat 4) was 2.38 and 2.60 and 2.62. The “ln(100-%LB)” value (8-oxo-dGTP 625μM, telomere repeat 5) was 2.10 and 2.36 and 2.34, the “ln(100-%LB)” value (8-oxo-dGTP 625μM, telomere repeat 6) was 1.76 and 2.09 and 2.01 and the “ln(100-%LB)” value (8-oxo-dGTP 625μM, telomere repeat 7) was 1.44 and 1.77 and 1.66. For the same molecule, the “ln(100-%LB)” value (8-oxo-dGTP 625μM, telomere repeat 8) was 1.22 and 1.56 and 1.41, the “ln(100-%LB)” value (8-oxo-dGTP 625μM, telomere repeat 9) was 0.99 and 1.31 and 1.14 and the “ln(100-%LB)” value (8-oxo-dGTP 625μM, telomere repeat 10) was 0.74 and 1.05 and 0.85. For the same molecule, the “ln(100-%LB)” value (8-oxo-dGTP 625μM, telomere repeat 11) was 0.51 and 0.79 and 0.55, the “ln(100-%LB)” value (8-oxo-dGTP 625μM, telomere repeat 12) was 0.32 and 0.58 and 0.29 and the “YIntercept (line fit of ln(100-%LB) vs # telomere repeats)” value (8-oxo-dGTP 2500μM) was 4.49 and 4.30 and 4.68. For the same molecule, the “Processivity R 1/2” value (8-oxo-dGTP 2500 μM, replicates n1-n4) was 0.72 and 0.43 (2×) and 0.55, the “ln(100-%LB)” value (8-oxo-dGTP 2500μM, telomere repeat 1) was 3.44 and 3.70 and 3.07 and the “Processivity R 1/2” value (8-oxo-dGTP 5000 μM, replicates n1-n4) was 0. For the same molecule, the “Processivity R 1/2” value (8-oxo-dGTP 10000 μM, replicates n1-n4) was 0, the IC50 [1] was 1690 ± 172 µM and the LogIC50 (fit of R 1/2 vs log(concentration μM), 8-oxo-dGTP, replicates N1-N4) was 3.24 and 3.27 and 3.16 and 3.23. The “Bottom (best-fit value)” value [2] was 0.33 and -0.00509 and -0.0042 and -0.0316, the HillSlope [2] was -4.72 and -6.07 and -3.06 and -3.86 and the “Span (best-fit value)” value [2] was 2.87 and 3.02 and 2.71 and 3.30. The “Top (best-fit value)” value [2] was 3.21 and 3.01 and 2.70 and 3.27, the IC50 [3] was 2000 µM and the IC50 (repeat processivity R 1/2, 8-oxo-dGTP, single replicates N1-N4, read-out: IC50) was 1740 µM and 1870 µM and 1460 µM and 1690 µM.

In the case of `Cc1cn([C@H]2C[C@H](N=[N+]=[N-])[C@@H](CO[P@](=O)(O)O[P@](=O)(O)OP(=O)(O)O)O2)c(=O)[nH]c1=O` [AZT-TP], the IC50 [1] is reported as 402 ± 169 µM, the “Best-fit values HillSlope” value [4] is reported as -0.83 and -0.51 and the “Best-fit values Span” value [4] is reported as 2.37 and 4.19. The “Best-fit values LogIC50” value (dose-response fit of processivity R 1/2, log of concentration in μM, individual replicates) was 2.72 and 2.45, the “Best-fit values Bottom” value [5] was -0.33 and -0.59 and the “Best-fit values Top” value [5] was 2.04 and 3.59. For the same molecule, the IC50 [3] was 501 µM, the “Processivity R 1/2” value (modified dNTP concentration 31.25 μM, individual replicates n1-n3) was 1.70 and 1.35 and the “Processivity R 1/2” value (modified dNTP concentration 500 μM, individual replicates) was 0.80 and 0.64. For the same molecule, the “Processivity R 1/2” value (modified dNTP concentration 1000 μM, individual replicates) was 0.57 and 0.61, the “Processivity R 1/2” value (modified dNTP concentration 2000 μM, individual replicates) was 0.00 and 0.49 and the “Processivity R 1/2” value (modified dNTP concentration 4000 μM, individual replicates) was 0.00. For the same molecule, the IC50 (repeat processivity R 1/2, individual replicates N1-N3, read-out: Best-fit values IC50) was 521 µM and 282 µM and the IC50 (repeat processivity R 1/2, mean of replicates, read-out: Mean IC50) was 402 µM.
